The subject of one test is NCI-H1417 cells. Description: In vitro cell proliferation detection (CellTiter-Glo, 7 days). The format is cell-based.
The next test addresses LSD1 (Homo sapiens (Human), UniProt O60341). Description: LSD1 enzyme activity detection (HTRF). The format is biochemical.
[1] abbreviates: read-out: Inhibition of enzymatic activity of LSD1 IC50.
The mark [2] stands for this setting: NCI-H1417 cells, 7 days, CellTiter-Glo, read-out: NCI-H1417 proliferation inhibition IC50.
The mark [3] stands for this setting: HTRF, H3K4me1 substrate, read-out: Inhibition of enzymatic activity of LSD1 IC50.
Where [4] appears, read: Homo sapiens, 168 h, NCI-H1417 cells, 7 days, CellTiter-Glo, read-out: NCI-H1417 proliferation inhibition IC50.
The mark [5] stands for this setting: Homo sapiens, NCI-H1417, 168 h, read-out: NCI-H1417 proliferation inhibition IC50(nM).

Where a name gives a salt, the structure may show the parent alone. Read-outs that look alike come from different tables or passages of the source.

In the case of “5′-(4-aminopiperidin-1l-yl)-3-fluoro-3′,3′-dihydroxy-4′-methyl-[1,1′:2′,1′-triphenyl]-4-carbonitrile [Example 266]”, the IC50 in the test with NCI-H1417 cells (read-out: NCI-H1417 proliferation inhibition IC50) was found to be 0.48 nM; on LSD1 (setting [1]) it was 0.7 ± 0.004 nM.

Turning to `CS(=O)(=O)N1CCN(C(=O)c2cc(CN[C@@H]3C[C@H]3c3ccc(F)cc3)nc(-c3ccccc3)n2)CC1` [Example 1], the IC50 in the test on NCI-H1417 cells (setting [2]) was 11.3 nM; at LSD1 (setting [3]), 186 ± 69.6 nM.

On to `Cc1ccc(-c2c(-c3ccc(C#N)cc3)cc3c(N4CCC[C@@H](N)C4)nccn23)cc1` [Example 3, (R)-4-(1-(3-aminopiperidin-1-yl)-6-(p-tolyl)pyrrolo[1,2-a]pyrazine-7-yl)benzonitrile], for which the IC50 was found to be 34.2 nM in the test with NCI-H1417 cells (setting [4]) and 0.8 ± 0.08 nM at LSD1 (setting [3]).

Take `Cc1ccc(-c2c(-c3ccc(C#N)cc3)cc3c(N4CCC[C@@H](N)C4)nncn23)cc1` [Example 4, (R)-4-(1-(3-aminopiperidin-1-yl)-6-(p-tolyl)pyrrolo[1,2-d] [1,2,4]triazine-7-yl)benzonitrile]: the IC50 with NCI-H1417 cells (setting [4]) worked out at 30.4 nM; on LSD1 (setting [3]) it was 2.3 ± 0.74 nM.

Turning to `Cc1ccc(-c2c(-c3ccc(C#N)cc3)nc3c(N4CCC[C@@H](N)C4)nccn23)cc1` [Example 5, (R)-4-(8-(3-aminopiperidin-1-yl)-3-(p-tolyl)imidazo[1,2-a]pyrazin-2-yl)benzonitrile hydrochloride], the IC50 in the test on NCI-H1417 cells (setting [5]) was 165 nM.

Turning to `Cc1ccc(-c2sc(C(=O)N3C4CCC3CC(N)C4)cc2-c2ccc(C#N)c(F)c2)c(F)c1` (centres unmarked) [Example 6, 4-(5-(3-amino-8-azabicyclo[3.2.1]octane-8-carbonyl)-2-(2-fluoro-4-methylphenyl)thiophen-3-yl)-2-fluorobenzonitrile hydrochloride], the IC50 was 3.64 nM with NCI-H1417 cells (setting [4]) and 0.3 ± 0.25 nM on LSD1 (setting [3]).

As to `Cc1ccc(-c2sc(CN3C4CCC3CC(N)C4)cc2-c2ccc(C#N)c(F)c2)c(F)c1` (centres unmarked) [Example 7, 4-(5-((3-amino-8-azabicyclo[3.2.1]octane-8-yl)methyl)-2-(2-fluoro-4-methylphenyl)thiophen-3-yl)-2-fluorobenzonitrile trifluoroacetate], the IC50 in the test on NCI-H1417 cells (setting [4]) turned out to be 46.4 nM; at LSD1 it was 0.4 ± 0.29 nM.

In the case of `CCCCCc1noc2cc(-c3sc(C(=O)N4C5CCC4CC(N)C5)cc3-c3ccc(C#N)c(F)c3)c(F)cc12` (centres unmarked) [Example 8, 4-(5-(3-amino-8-azabicyclo[3.2.1]octane-8-carbonyl)-2-(5-fluoro-3-pentylbenzo[d]isoxazol-6-yl)thiophen-3-yl)-2-fluorobenzonitrile], the values for the IC50 with NCI-H1417 cells (setting [4]) and on LSD1 (setting [3]) were 6.94 nM and 0.3 ± 0.04 nM, respectively.

On to `Cc1ccc(-c2c(-c3ccc(C#N)cc3)cc3c(N4CCC[C@@H](N)C4)cccn23)cc1` [Example 10, (R)-4-(8-(3-aminopiperidin-1-yl)-3-(p-tolyl)indolizin-2-yl)benzonitrile hydrochloride], for which the figures for the IC50 in the test with NCI-H1417 cells (setting [5]) and at LSD1 (setting [1]) were 371 nM and 79.1 ± 18.9 nM, respectively.

As to `COc1ccc(-c2c(O)cc(N3C4CCC3CC(N)C4)nc2-c2ccc(C#N)c(F)c2)cc1F` (centres unmarked) [Example 14, 4-(6-(3-amino-8-azabicyclo[3.2.1]octane-8-yl)-3-(3-fluoro-4-methoxyphenyl)-4-hydroxypyridin-2-yl)-2-fluorobenzonitrile], the IC50 with NCI-H1417 cells (setting [4]) was 64.9 nM; at LSD1 (setting [3]) it was 13.8 nM.

With `COc1ccc(-c2c(O)cc(N3CCN(C)CC3)nc2-c2ccc(C#N)c(F)c2)cc1F` [Example 15, 2-fluoro-4-(3-(3-fluoro-4-methoxyphenyl)-4-hydroxy-6-(4-methylpiperazin-1-yl)pyridin-2-yl)benzonitrile], the IC50 in the test on NCI-H1417 cells (setting [4]) was 104 nM; at LSD1 (setting [3]), 49.9 nM.

Consider `CNC1CCCN(c2cc(O)c(-c3ccc(OC)c(F)c3)c(-c3ccc(C#N)c(F)c3)n2)C1` (centres unmarked) [Example 16, 2-fluoro-4-(3-(3-fluoro-4-methoxyphenyl)-4-hydroxy-6-(3-(methylamino)piperidin-1-yl)pyridin-2-yl)benzonitrile], for which the figures for the IC50 in the test with NCI-H1417 cells (setting [4]) and at LSD1 (setting [3]) were 38 nM and 15.2 ± 3.7 nM, respectively.

For `N#Cc1ccc(-c2nc(N3CCC(N)CC3)cc(O)c2-c2ccn3ccnc3c2)cc1F` [Example 17, 4-(6-(4-aminopiperidin-1-yl)-4-hydroxy-3-(imidazolo[1,2-a]pyridin-7-yl)pyridin-2-yl)-2-fluorobenzonitrile hydrochloride], the IC50 is more than 1000 nM in the test on NCI-H1417 cells (setting [4]) and 19.4 nM on LSD1 (setting [3]).

On to `N#Cc1ccc(-c2nc(N3CCC(N)CC3)cc(O)c2-c2ccc(OC(F)(F)F)c(F)c2)cc1F` [Example 18, 4-(6-(4-aminopiperidin-1-y)-3-(3-fluoro-4-(trifluoromethoxy)phenyl)-4-hydroxypyridin-2-yl)-2-fluorobenzonitrile], for which the IC50 was 87.2 nM with NCI-H1417 cells (setting [4]) and 78.3 nM on LSD1 (setting [3]).

With `N#Cc1ccc(-c2nc(N3CCC(N)CC3)cc(O)c2-c2ccc3oc(=O)[nH]c3c2)cc1F` [Example 19, 4-(6-(4-aminopiperidin-1-yl)-4-hydroxy-3-(2-oxo-2,3-dihydrobenzo[d]oxazol-5-yl)pyridin-2-yl)-2-fluorobenzonitrile hydrochloride], the IC50 is more than 1000 nM in the test on NCI-H1417 cells (setting [4]) and 5.96 nM at LSD1 (setting [3]).

Take `N#Cc1ccc(-c2nc(N3CCC(N)CC3)cc(O)c2-c2ccc(N3CCOCC3)cc2)cc1F` [Example 21, 4-(6-(4-aminopiperidin-1-yl)-4-hydroxy-3-(4-morpholinophenyl)pyridin-2-yl)-2-fluorobenzonitrile hydrochloride]: the IC50 came out at 38.7 nM with NCI-H1417 cells (setting [4]) and 10.5 nM at LSD1 (setting [3]).

Consider `COc1ccc(-c2c(O)cc(N3CCC(N)CC3)nc2-c2ccc(C#N)c(F)c2)cn1` [Example 22, 4-(6-(4-aminopiperidin-1-yl)-4-hydroxy-6′-methoxy-[3,3′-bipyridine]-2-yl)-2-fluorobenzonitrile], for which the IC50 in the test with NCI-H1417 cells (setting [4]) is 34.9 nM; at LSD1 (setting [3]) it was 9.03 nM.

In the case of `Cc1noc2cc(-c3c(O)cc(N4C5CCC4CC(N)C5)nc3-c3ccc(C#N)c(F)c3)c(F)cc12` (centres unmarked) [Example 24, 4-(6-(3-amino-8-azabicyclo[3.2.1]octane-8-yl)-3-(5-fluoro-3-methylbenzo[d]isoxazol-6-yl)-4-hydroxypyridin-2-yl)-2-fluorobenzonitrile], the IC50 with NCI-H1417 cells (setting [4]) is 252 nM; on LSD1 (setting [3]), 21.5 ± 20.5 nM.

`CC(C)(O)C#Cc1ccc(-c2c(O)cc(N3CCC(N)CC3)nc2-c2ccc(C#N)c(F)c2)cc1F` [Example 25, 4-(6-(4-aminopiperidin-1-yl)-3-(3-fluoro-4-(3-hydroxy-3-methyl-1-alkynyl-1-yl)phenyl)-4-hydroxypyridin-2-yl)-2-fluorobenzonitrile hydrochloride]: the figures for the IC50 in the test on NCI-H1417 cells (setting [4]) and at LSD1 (setting [3]) were 868 nM and 71.7 nM, respectively.

`COc1ccc(C#Cc2c(O)cc(N3CCC(N)CC3)nc2-c2ccc(C#N)c(F)c2)cc1F` [Example 27]: the IC50 with NCI-H1417 cells (setting [4]) was 446 nM; on LSD1 (setting [3]), 77.5 nM.

In the case of `COc1ccc(Nc2c(O)cc(N3CCC(N)CC3)nc2-c2ccc(C#N)c(F)c2)cc1F` [Example 64, 4-(6-(4-aminopiperidin-1-yl)-3-(3-fluoro-4-methoxyphenyl)amino)-4-hydroxypyridin-2-yl)-2-flu orobenzonitrile hydrochloride], the IC50 with NCI-H1417 cells (setting [4]) was 344 nM.

Consider `Cc1noc2cc(-c3sc(C(=O)N4C5CCC4CC(N)C5)cc3-c3ccc(S(N)(=O)=O)cc3)c(F)cc12` (centres unmarked) [Example 212, 4-(5-(3-amino-8-azabicyclo [3.2.1]octane-8-carbonyl)-2-(5-fluoro-3-methyl-benzo[d]isoxazol-6-yl)thiophen-3-yl)benzene-sulfonamide], for which the IC50 on LSD1 (setting [3]) amounted to 207 nM.

For the compound `Cc1noc2cc(-c3sc(C(=O)N4C5CCC4CC(N)C5)cc3-c3ccc(S(C)(=O)=O)cc3)c(F)cc12` (centres unmarked) [Example 213, (3-amino-8-azabicyclo [3.2.1]octan-8-yl) (5-(5-fluoro-3-methylbenzo [d]isoxazol-6-yl)-4-(4-(methyldimethylsulfoxide-16-sulfonyl)phenyl)thio-phen-2-yl)methanone], on LSD1 (setting [3]), the IC50 is 36.7 nM.

With `CS(=O)(=O)N1CCN(c2cc(CCCN[C@@H]3C[C@H]3c3ccc(F)cc3)nn(-c3ccc(C#N)cc3)c2=O)CC1` [Example 260, 4-(3-(3-((1R,2S)-2-(4-fluorophenyl)cyclopropyl)amino)-5-(4-(methylsulfonyl)piperazin-1-yl)-6-oxypyridazine-1 (6H)-yl)benzonitrile formate], the IC50 in the test on NCI-H1417 cells (setting [2]) stood at 46.1 nM.

`CS(=O)(=O)N1CCN(c2cc(CN[C@@H]3C[C@H]3c3ccc(F)cc3)nc(-c3ccc(N4CCOCC4)cc3)n2)CC1` [Example 265, (1R,2S)-2-(4-fluorophenyl)-N-((6-(4-(methylsulfonyl)piperazin-1-yl)-2-(4-morpholinophenyl)pyrimidin-4-yl)methyl) cyclopropane-1-amine]: on LSD1 (setting [3]), the IC50 was 224 nM.

Take `COc1ccc(-c2nc(N3CCC(N)CC3)cc(C#N)c2-c2ccc(C#N)c(F)c2)cc1O` [Example 274, 6-(4-aminopiperidin-1-yl)-3-(4-cyano-3-fluorophenyl)-2-(3-hydroxy-4-methoxyphenyl)pyridin-4-carbonitrile]: the IC50 in the test on NCI-H1417 cells (setting [4]) is more than 1000 nM.

Consider `COc1ccc(-c2cc(C#N)c(N3CCC(N)CC3)nc2-c2ccc(C#N)c(F)c2)cc1O` [Example 282, 2-(4-aminopiperidin-1-yl)-6-(4-cyano-3-fluorophenyl)-5-(3-hydroxy-4-methoxyphenyl)nicotinon itrile hydrochloride], for which the IC50 in the test on NCI-H1417 cells (setting [4]) was 136 nM.

`COc1ccc(-c2c(-c3ccc(C#N)c(F)c3)nc(N3CCC(N)CC3)c3c2cnn3C)cc1O` [Example 285, 4-(7-(4-aminopiperidin-1-yl)-4-(3-hydroxy-4-methoxyphenyl)-1-methyl-1H-pyrazolo[3,4-c]pyridin-5-yl)-2-fluorobenzonitrile]: the IC50 in the test on NCI-H1417 cells (setting [4]) came to 2.16 nM.
